Columns and labels:
Assay in all cases: Test of herbicidal activities (greenhouse pot method)
Type in all cases: in vivo
Details in all cases: single dose 300 g ai./h, treated before/after germination, 15 days later, greenhouse pot
Amaranthus retroflexus = system: Amaranthus retroflexus
Procedure: (§1) Garden soil was collected from regions where no pesticide is used and mixed uniformly with mountain soil and organic humus soil at a volume ratio of 1:1:1.
(§2) Multiple flowerpots each having a diameter of 9.5 cm and a depth of 8 cm were filled with the soil mixture to 3/4 volume. After water was added to the soil and the soil was completely wet, seeds of three grass weeds and three broadleaf weeds were inserted into the flowerpots (10-15 seeds for each weed). After seeding, the seeds were covered with fine oil mixed with sand and having a thickness of 1-3 cm. After the soil absorbed enough water and became saturated, excess water at the bottom of the flowerpot was drained, and the seeds were placed in a greenhouse for growth.
(§3) The weeds were watered every day so as to keep relative humidity of the soil at approximately 80%, growing temperature of 15-30° C., and air humidity above 50%. As the grass weeds grew to a 2-leaf stage and the broadleaf weeds was in a leaf period, spraying operation […] was performed on the stems and leafs. Planting before germination was performed before spraying. Soil processing was performed before the seeds of the weeds emerged.
(§4) Six target weeds comprising three grass weeds: Echinochloa crusgalli, Digiatria sanguinalis, Setaria viridis, along with three broadleaf weeds: Brassica juncea, Amaranthus retroflexus, Chenopodium album were treated before/after germination using a so-called “greenhouse pot” method with a single dose. A treating dose was 300 g ai./h. The process was repeated three times, and a blank control was used.
(§5) A 3WPSHZ-500 type automatic spraying tower with a spraying area of 0.132 m^2, a spray volume of 10 mL, working pressure of 0.2 MPa, and a liquid volume of 40% of maximum was used. After treatment, the weeds were placed in a greenhouse at a temperature of 15-30° C. Reaction symptoms of the weeds were regularly observed, and 15 days later, five reaction levels were determined according to the following inhibition intervals: 90≦A≦100%; 80≦B<90%, 60≦C<80%; 50≦D<60%, E<50%.

Brassica juncea = system: Brassica juncea
Procedure: as §1, §2, §3, §4, §5

Chenopodium album = system: Chenopodium album
Procedure: as §1, §2, §3, §4, §5

Digiatria sanguinalis = system: Digiatria sanguinalis
Procedure: as §1, §2, §3, §4, §5

Echinochloa crusgalli = system: Echinochloa crusgalli
Procedure: as §1, §2, §3, §4, §5

Setaria viridis = system: Setaria viridis
Procedure: as §1, §2, §3, §4, §5

SMILES	Herbicidal activity Amaranthus retroflexus (inhibition level) (Amaranthus retroflexus)	Herbicidal activity Brassica juncea (inhibition level) (Brassica juncea)	Herbicidal activity Chenopodium album (inhibition level) (Chenopodium album)	Herbicidal activity Digiatria sanguinalis (inhibition level) (Digiatria sanguinalis)	Herbicidal activity Echinochloa crusgalli (inhibition level) (Echinochloa crusgalli)	Herbicidal activity Setaria viridis (inhibition level) (Setaria viridis)
Cc1nn(-c2cc3nc(SCc4ccco4)sc3cc2F)c(=O)n1C(F)F [Compound 29]	C (60 ≦ C < 80%)	C (60 ≦ C < 80%)	B (80 ≦ B < 90%)	B (80 ≦ B < 90%)	C (60 ≦ C < 80%)	B (80 ≦ B < 90%)
CCCS(=O)(=O)c1nc2cc(-n3nc(C)n(C(F)F)c3=O)c(F)cc2s1 [Compound 64]	B (80 ≦ B < 90%)	D (50 ≦ D < 60%)	B (80 ≦ B < 90%)	A (90 ≦ A ≦ 100%)	B (80 ≦ B < 90%)	B (80 ≦ B < 90%)
Cc1ccc([N+](=O)[O-])c(C[S+]([O-])c2nc3cc(-n4nc(C)n(C(F)F)c4=O)c(F)cc3s2)c1 (stereo not drawn) [Compound 106]	D (50 ≦ D < 60%)	B (80 ≦ B < 90%)	A (90 ≦ A ≦ 100%)	D (50 ≦ D < 60%)	D (50 ≦ D < 60%)	B (80 ≦ B < 90%)
CCCCS(=O)(=O)c1nc2cc(-n3nc(C)n(C(F)F)c3=O)c(F)cc2s1 [Compound 63]	A (90 ≦ A ≦ 100%)	B (80 ≦ B < 90%)	A (90 ≦ A ≦ 100%)	A (90 ≦ A ≦ 100%)	B (80 ≦ B < 90%)	C (60 ≦ C < 80%)
CCCCCCS(=O)(=O)c1nc2cc(-n3nc(C)n(C(F)F)c3=O)c(Cl)cc2s1 [Compound 57]	A (90 ≦ A ≦ 100%)	B (80 ≦ B < 90%)	C (60 ≦ C < 80%)	A (90 ≦ A ≦ 100%)	D (50 ≦ D < 60%)	D (50 ≦ D < 60%)
Cc1nn(-c2cc3nc([S+](C)[O-])sc3cc2Br)c(=O)n1C(F)F (stereo not drawn) [Compound 108]	B (80 ≦ B < 90%)	A (90 ≦ A ≦ 100%)	E (E < 50%)	B (80 ≦ B < 90%)	A (90 ≦ A ≦ 100%)	B (80 ≦ B < 90%)
Cc1nn(-c2cc3nc([S+]([O-])Cc4cccc(Cl)c4)sc3cc2F)c(=O)n1C (stereo not drawn) [Compound 103]	A (90 ≦ A ≦ 100%)	D (50 ≦ D < 60%)	A (90 ≦ A ≦ 100%)	B (80 ≦ B < 90%)	E (E < 50%)	B (80 ≦ B < 90%)
C#CCSc1nc2cc(-n3nc(C)n(C(F)F)c3=O)c(F)cc2s1 [Compound 130]	A (90 ≦ A ≦ 100%)	D (50 ≦ D < 60%)	B (80 ≦ B < 90%)	C (60 ≦ C < 80%)	B (80 ≦ B < 90%)	A (90 ≦ A ≦ 100%)
Cc1ccc(C[S+]([O-])c2nc3cc(-n4nc(C)n(C(F)F)c4=O)c(F)cc3s2)cc1 (stereo not drawn) [Compound 105]	B (80 ≦ B < 90%)	B (80 ≦ B < 90%)	B (80 ≦ B < 90%)	C (60 ≦ C < 80%)	D (50 ≦ D < 60%)	B (80 ≦ B < 90%)
Cc1nn(-c2cc3nc(SCc4cccc(F)c4)sc3cc2Cl)c(=O)n1C(F)F [Compound 7]	B (80 ≦ B < 90%)	C (60 ≦ C < 80%)	E (E < 50%)	B (80 ≦ B < 90%)	E (E < 50%)	B (80 ≦ B < 90%)
COCCSc1nc2cc(-n3nc(C)n(C(F)F)c3=O)c(Cl)cc2s1 [Compound 76]	A (90 ≦ A ≦ 100%)	C (60 ≦ C < 80%)	C (60 ≦ C < 80%)	A (90 ≦ A ≦ 100%)	A (90 ≦ A ≦ 100%)	B (80 ≦ B < 90%)
CCOC(=O)C(C)Sc1nc2cc(-n3nc(C(F)(F)F)n(C(F)F)c3=O)c(Cl)cc2s1 (stereo not drawn) [Compound 124]	B (80 ≦ B < 90%)	B (80 ≦ B < 90%)	B (80 ≦ B < 90%)	E (E < 50%)	D (50 ≦ D < 60%)	A (90 ≦ A ≦ 100%)
C=CCS(=O)(=O)c1nc2cc(-n3nc(C)n(C(F)F)c3=O)c(Br)cc2s1 [Compound 60]	A (90 ≦ A ≦ 100%)	A (90 ≦ A ≦ 100%)	B (80 ≦ B < 90%)	A (90 ≦ A ≦ 100%)	B (80 ≦ B < 90%)	C (60 ≦ C < 80%)
CCSc1nc2cc(-n3nc(C)n(C(F)F)c3=O)c(Br)cc2s1 [Compound 80]	A (90 ≦ A ≦ 100%)	A (90 ≦ A ≦ 100%)	E (E < 50%)	B (80 ≦ B < 90%)	A (90 ≦ A ≦ 100%)	A (90 ≦ A ≦ 100%)
Cc1nn(-c2cc3nc(SCc4cccc(Cl)c4)sc3cc2F)c(=O)n1C(F)F [Compound 23]	A (90 ≦ A ≦ 100%)	E (E < 50%)	D (50 ≦ D < 60%)	C (60 ≦ C < 80%)	C (60 ≦ C < 80%)	D (50 ≦ D < 60%)
Cc1nn(-c2cc3nc(SCc4ccc(Cl)cc4)sc3cc2Cl)c(=O)n1C(F)F [Compound 5]	A (90 ≦ A ≦ 100%)	B (80 ≦ B < 90%)	E (E < 50%)	B (80 ≦ B < 90%)	C (60 ≦ C < 80%)	E (E < 50%)

Reference: patent publication US7666890B2, “Synthesis and herbicidal activity of 1- (2-substituted benzo[d]thiazol-5-yl)-1H-1,2,4-triazol-5(4H)-one derivatives” (Huazhong Normal University, priority 2007, dated 2010)
